Results taken from patent US9796704B2, “Substituted quinazolines as receptor-type kinase inhibitors” (Symphony Evolution, Inc., priority 2002, dated 2017).
pIC50: −log10 of the molar value.

How the values were obtained:
[1] = target: EphB4 (Homo sapiens (Human), UniProt P54760); assay: EphB4 kinase inhibition, 33P phosphoryl transfer assay (radiometric); format: biochemical
Description: Phosphorylated substrate products are quantified by scintillation spectrometry.
Kinase activity and compound inhibition are investigated using one or more of the three assay formats described below. The ATP concentrations are selected near its Michaelis-Menten constant (KM) for each individual kinase. Dose-response experiments are performed at ten different inhibitor concentrations in a 384-well plate format. […] These parameters are obtained by nonlinear regression algorithm built into ActivityBase software (available from ID Business Solutions Ltd., of Guildford, Surrey, UK). ^33P Phosphoryl Transfer Assay (Radiometric)
Greiner 384-well white clear bottom high binding plates (available from Greiner Bio-One, Inc., of Longwood, Fla.) are coated with 2 μg/well of protein or peptide substrate in a 50 μL volume overnight at ambient temperature. […] The coating solution is aspirated and the plates are washed once with 50 μL of assay buffer and padded dry. Subsequently compounds and enzymes are mixed with γ ^33P-ATP (3.3 μCi/nmol) in a total volume of 20 uL in suitable assay buffers (see Table 2). For example the final EphB4 reaction solution contains 20 mM TrisHCl, pH 7.5, 10 mM MgCl2, 0.01% Triton X-100, 0.1 mM NaVO3, 5 nM EphB4 enzyme and 5 μM ATP. […] The plates are subsequently washed 6-12 times with PBST or TBS buffer.

[2] = target: EGFR (Homo sapiens (Human), UniProt P00533); assay: EGFR kinase inhibition, luciferase-coupled chemiluminescent assay (LCCA); conditions: read-out: EGFR IC50
Sequence of EGFR (P00533 672-1210): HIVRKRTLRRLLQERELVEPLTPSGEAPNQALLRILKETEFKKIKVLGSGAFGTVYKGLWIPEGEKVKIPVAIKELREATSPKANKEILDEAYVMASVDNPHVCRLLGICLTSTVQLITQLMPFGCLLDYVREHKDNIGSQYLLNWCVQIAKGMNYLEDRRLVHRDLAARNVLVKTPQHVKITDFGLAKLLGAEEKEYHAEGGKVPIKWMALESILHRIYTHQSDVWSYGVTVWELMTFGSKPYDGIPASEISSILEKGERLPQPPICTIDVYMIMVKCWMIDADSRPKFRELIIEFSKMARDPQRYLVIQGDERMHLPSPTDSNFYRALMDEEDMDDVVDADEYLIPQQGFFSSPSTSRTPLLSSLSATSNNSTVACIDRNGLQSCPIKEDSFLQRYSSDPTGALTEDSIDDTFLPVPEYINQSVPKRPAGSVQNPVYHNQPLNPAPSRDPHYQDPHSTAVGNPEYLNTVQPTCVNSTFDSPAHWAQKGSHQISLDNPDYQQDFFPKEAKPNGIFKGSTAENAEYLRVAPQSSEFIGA

[3] = target: EphA2 (Homo sapiens (Human), UniProt P29317); assay: EphA2 kinase inhibition, luciferase-coupled chemiluminescent assay (LCCA); conditions: read-out: EphA2 IC50
Sequence of EphA2 (P29317 598-890): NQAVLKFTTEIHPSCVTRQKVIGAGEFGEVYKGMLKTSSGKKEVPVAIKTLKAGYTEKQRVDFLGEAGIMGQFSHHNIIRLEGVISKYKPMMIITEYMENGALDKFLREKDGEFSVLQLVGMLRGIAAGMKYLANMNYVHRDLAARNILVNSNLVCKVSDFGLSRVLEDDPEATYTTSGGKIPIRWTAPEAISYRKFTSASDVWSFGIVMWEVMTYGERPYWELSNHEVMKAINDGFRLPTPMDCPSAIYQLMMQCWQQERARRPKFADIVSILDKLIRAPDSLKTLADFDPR
Description: Kinase activity and compound inhibition are investigated using one or more of the three assay formats described below. The ATP concentrations are selected near its Michaelis-Menten constant (KM) for each individual kinase. Dose-response experiments are performed at ten different inhibitor concentrations in a 384-well plate format. […] Typically H is close to unity.
In the LCCA assays, kinase activity is measured by the ATP consumption that is accurately measured by luciferase-coupled chemiluminescence. Greiner 384-well white clear bottom medium binding plates are used for LCCA. Briefly the kinase reaction is initiated by mixing compounds, ATP and kinases in a 20 μL volume. At the end of the kinase reaction, a 20 μL luciferase-luciferin mix is added and the chemiluminescent signal is read on a Wallac Victor^2 reader.

Sequence of EphB4 (P54760 605-890): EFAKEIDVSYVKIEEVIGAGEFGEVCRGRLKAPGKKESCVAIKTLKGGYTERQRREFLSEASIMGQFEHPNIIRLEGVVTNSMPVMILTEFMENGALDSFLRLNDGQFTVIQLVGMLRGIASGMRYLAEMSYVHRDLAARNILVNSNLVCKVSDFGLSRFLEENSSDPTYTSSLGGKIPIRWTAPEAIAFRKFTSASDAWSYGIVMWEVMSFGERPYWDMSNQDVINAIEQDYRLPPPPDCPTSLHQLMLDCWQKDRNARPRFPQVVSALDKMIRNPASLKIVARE

`COc1cc2c(Nc3ccc(Cl)c(Cl)c3)ncnc2cc1OCCN1CCCC1` [Example 191, N-(3,4-dichlorophenyl)-6-(methyloxy)-7-[(2-pyrrolidin-1-ylethyl)oxy]quinazolin-4-amine] gave a pIC50 [1] of 6.00 to 7.30, a pIC50 [2] greater than 7.30 and a pIC50 [3] of 6.00 to 7.30.
Work on `COc1cc2c(Nc3ccc(Cl)c(Cl)c3)ncnc2cc1OCCN1CCCCC1` [Example 192, N-(3,4-dichlorophenyl)-6-(methyloxy)-7-[(2-piperidin-1-ylethyl)oxy]quinazolin-4-amine] yielded a pIC50 [1] of 6.00 to 7.30, a pIC50 [2] greater than 7.30 and a pIC50 [3] of 4.70 to 6.00.
With `COc1cc2c(Nc3ccc(Cl)c(Cl)c3)ncnc2cc1OCC(=O)N1CCOCC1` [Example 195, N-(3,4-dichlorophenyl)-6-(methyloxy)-7-[(2-morpholin-4-yl-2-oxoethyl)oxy]quinazolin-4-amine] the pIC50 [1] was 6.00 to 7.30, the pIC50 [2] was greater than 7.30 and the pIC50 [3] was 6.00 to 7.30.
`COc1cc2c(Nc3ccc(Cl)c(Cl)c3)ncnc2cc1OCc1nc(-c2ccc(O)c(C(N)=O)c2)cs1` [Example 200, 5-[2-({[4-[(3,4-dichlorophenyl)amino]-6-(methyloxy)quinazolin-7-yl]oxy}methyl)-1,3-thiazol-4-yl]-2-hydroxybenzamide] gave a pIC50 [1] of 6.00 to 7.30, a pIC50 [2] greater than 7.30 and a pIC50 [3] of 6.00 to 7.30.
With `COc1cc2c(Nc3ccc(Cl)c(Cl)c3)ncnc2cc1OCc1nc(-c2cccnc2)cs1` [Example 201, N-(3,4-dichlorophenyl)-6-(methyloxy)-7-{[(4-pyridin-3-yl-1,3-thiazol-2-yl)methyl]oxy}quinazolin-4-amine] the pIC50 [1] was 6.00 to 7.30, the pIC50 [2] was greater than 7.30 and the pIC50 [3] was 6.00 to 7.30.
Work on `COc1cc2c(Nc3ccc(Cl)c(Cl)c3)ncnc2cc1OCc1nc(N2CCOCC2)no1` [Example 205, N-(3,4-dichlorophenyl)-6-(methyloxy)-7-{[(3-morpholin-4-yl-1,2,4-oxadiazol-5-yl)methyl]oxy}quinazolin-4-amine] yielded a pIC50 [1] greater than 7.30, a pIC50 [2] greater than 7.30 and a pIC50 [3] of 6.00 to 7.30.
In the case of `COc1cc2c(Nc3ccc(Cl)c(Cl)c3)ncnc2cc1OCc1nc(N(C)C)no1` [Example 206, N-(3,4-dichlorophenyl)-7-({[3-(dimethylamino)-1,2,4-oxadiazol-5-yl]methyl}oxy)-6-(methyloxy)quinazolin-4-amine], the pIC50 [1] was 6.00 to 7.30, the pIC50 [2] was greater than 7.30 and the pIC50 [3] was 6.00 to 7.30.
With `COc1cc2c(Nc3ccc(Cl)c(Cl)c3)ncnc2cc1OCc1nc2c(s1)CNCC2` [Example 208, N-(3,4-dichlorophenyl)-6-(methyloxy)-7-[(4,5,6,7-tetrahydro[1,3]thiazolo[5,4-c]pyridin-2-ylmethyl)oxy]quinazolin-4-amine] the pIC50 [1] was 6.00 to 7.30, the pIC50 [2] was greater than 7.30 and the pIC50 [3] was 6.00 to 7.30.
`COc1cc2c(Nc3ccc(Cl)c(Cl)c3)ncnc2cc1OCc1nc(CN2CCOCC2)cs1` [Example 209, N-(3,4-dichlorophenyl)-6-(methyloxy)-7-({[4-(morpholin-4-ylmethyl)-1,3-thiazol-2-yl]methyl}oxy)quinazolin-4-amine] was tested, and the pIC50 [1] was greater than 7.30, the pIC50 [2] was greater than 7.30 and the pIC50 [3] was 6.00 to 7.30.
Compound `CCN1CCOC(COc2cc3ncnc(Nc4ccc(Cl)c(Cl)c4)c3cc2OC)C1` (stereo not drawn) [Example 212, N-(3,4-dichlorophenyl)-7-{[(4-ethylmorpholin-2-yl)methyl]oxy}-6-(methyloxy)quinazolin-4-amine] has a pIC50 [1] of 6.00 to 7.30, a pIC50 [2] greater than 7.30 and a pIC50 [3] of 6.00 to 7.30.
`COc1cc2c(Nc3ccc(Cl)c(Cl)c3)ncnc2cc1OCc1csc(C2CCNCC2)n1` [Example 213, N-(3,4-dichlorophenyl)-6-(methyloxy)-7-{[(2-piperidin-4-yl-1,3-thiazol-4-yl)methyl]oxy}quinazolin-4-amine] gave a pIC50 [1] greater than 7.30, a pIC50 [2] greater than 7.30 and a pIC50 [3] of 6.00 to 7.30.
Compound `COc1cc2c(Nc3ccc(Cl)c(Cl)c3)ncnc2cc1OCc1csc(C2CCN(C)CC2)n1` [Example 214, N-(3,4-dichlorophenyl)-6-(methyloxy)-7-({[2-(1-methylpiperidin-4-yl)-1,3-thiazol-4-yl]methyl}oxy)quinazolin-4-amine] has a pIC50 [1] greater than 7.30, a pIC50 [2] greater than 7.30 and a pIC50 [3] of 6.00 to 7.30.
Work on `CCN1CCCCC1c1nc(COc2cc3ncnc(Nc4ccc(Cl)c(Cl)c4)c3cc2OC)no1` (stereo not drawn) [Example 219, N-(3,4-dichlorophenyl)-7-({[5-(1-ethylpiperidin-2-yl)-1,2,4-oxadiazol-3-yl]methyl}oxy)-6-(methyloxy)quinazolin-4-amine] yielded a pIC50 [1] of 6.00 to 7.30, a pIC50 [2] greater than 7.30 and a pIC50 [3] of 6.00 to 7.30.
Compound `CCN1CCN(c2noc(COc3cc4ncnc(Nc5ccc(Cl)c(Cl)c5)c4cc3OC)n2)CC1` [Example 220, N-(3,4-dichlorophenyl)-7-({[3-(4-ethylpiperazin-1-yl)-1,2,4-oxadiazol-5-yl]methyl}oxy)-6-(methyloxy)quinazolin-4-amine] has a pIC50 [1] of 6.00 to 7.30, a pIC50 [2] greater than 7.30 and a pIC50 [3] of 6.00 to 7.30.
With `COc1cc2c(Nc3ccc(Cl)c(Cl)c3)ncnc2cc1OCc1csc(-c2ccc(Cl)cc2)n1` [Example 223, 7-({[2-(4-chlorophenyl)-1,3-thiazol-4-yl]methyl}oxy)-N-(3,4-dichlorophenyl)-6-(methyloxy)quinazolin-4-amine] the pIC50 [1] was 6.00 to 7.30, the pIC50 [2] was greater than 7.30 and the pIC50 [3] was 6.00 to 7.30.
Compound `COc1cc2c(Nc3ccc(Cl)c(Cl)c3)ncnc2cc1OCc1noc(-c2c(C)noc2C)n1` [Example 224, N-(3,4-dichlorophenyl)-7-({[5-(3,5-dimethylisoxazol-4-yl)-1,2,4-oxadiazol-3-yl]methyl}oxy)-6-(methyloxy)quinazolin-4-amine] has a pIC50 [1] of 6.00 to 7.30, a pIC50 [2] greater than 7.30 and a pIC50 [3] of 6.00 to 7.30.
In the case of `COc1cc2c(Nc3ccc(Cl)c(Cl)c3)ncnc2cc1OCc1csc2ccc(Cl)cc12` [Example 225, 7-{[(5-chloro-1-benzothien-3-yl)methyl]oxy}-N-(3,4-dichlorophenyl)-6-(methyloxy)quinazolin-4-amine], the pIC50 [1] was 4.70 to 6.00, the pIC50 [2] was greater than 7.30 and the pIC50 [3] was 4.70 to 6.00.
Compound `COc1cc2c(Nc3ccc(Cl)c(Cl)c3)ncnc2cc1OCc1noc(-c2ccccc2OC)n1` [Example 227, N-(3,4-dichlorophenyl)-6-(methyloxy)-7-[({5-[2-(methyloxy)phenyl]-1,2,4-oxadiazol-3-yl}methyl)oxy]quinazolin-4-amine] has a pIC50 [1] greater than 7.30, a pIC50 [2] greater than 7.30 and a pIC50 [3] of 6.00 to 7.30.
With `COc1cc2c(Nc3ccc(Cl)c(Cl)c3)ncnc2cc1OCc1nnc(-c2ccc(C)cc2)o1` [Example 228, N-(3,4-dichlorophenyl)-6-(methyloxy)-7-({[5-(4-methylphenyl)-1,3,4-oxadiazol-2-yl]methyl}oxy)quinazolin-4-amine] the pIC50 [1] was greater than 7.30, the pIC50 [2] was greater than 7.30 and the pIC50 [3] was 6.00 to 7.30.
`COc1cc2c(Nc3ccc(Cl)c(Cl)c3)ncnc2cc1OCc1nccn1Cc1ccccc1` [Example 229, N-(3,4-dichlorophenyl)-6-(methyloxy)-7-({[1-(phenylmethyl)-lH-imidazol-2-yl]methyl}oxy)quinazolin-4-amine] showed a pIC50 [1] of 6.00 to 7.30, a pIC50 [2] greater than 7.30 and a pIC50 [3] of 4.70 to 6.00.
Work on `COc1cc2c(Nc3ccc(Cl)c(Cl)c3)ncnc2cc1OCc1csc(N(C)C)n1` [Example 240, N-(3,4-dichlorophenyl)-7-({[2-(dimethylamino)-1,3-thiazol-4-yl]methyl}oxy)-6-(methyloxy)quinazolin-4-amine] yielded a pIC50 [1] greater than 7.30, a pIC50 [2] greater than 7.30 and a pIC50 [3] of 6.00 to 7.30.
With `CCN1CCCOC(COc2cc3ncnc(Nc4ccc(Cl)c(Cl)c4)c3cc2OC)C1` (stereo not drawn) [Example 241, N-(3,4-dichlorophenyl)-7-{[(4-ethyl-1,4-oxazepan-2-yl)methyl]oxy}-6-(methyloxy)quinazolin-4-amine] the pIC50 [1] was greater than 7.30, the pIC50 [2] was greater than 7.30 and the pIC50 [3] was greater than 7.30.
Compound `COc1cc2c(Nc3ccc(Cl)c(Cl)c3)ncnc2cc1OCc1csc(CO)n1` [Example 246, [4-({[4-[(3,4-dichlorophenyl)amino]-6-(methyloxy)quinazolin-7-yl]oxy}methyl)-1,3-thiazol-2-yl]methanol] has a pIC50 [1] greater than 7.30, a pIC50 [2] greater than 7.30 and a pIC50 [3] greater than 7.30.
Work on `COc1cc2c(Nc3ccc(Cl)c(Cl)c3)ncnc2cc1OCc1csc([C@@H]2CSCN2)n1` [Example 248, N-(3,4-dichlorophenyl)-6-(methyloxy)-7-[({2-[(4S)-1,3-thiazolidin-4-yl]-1,3-thiazol-4-yl}methyl)oxy]quinazolin-4-amine] yielded a pIC50 [1] of 6.00 to 7.30, a pIC50 [2] greater than 7.30 and a pIC50 [3] of 6.00 to 7.30.
Compound `COc1cc2c(Nc3ccc(Cl)c(Cl)c3)ncnc2cc1OCc1csc(C2CCCCN2)n1` (stereo not drawn) [Example 249, N-(3,4-dichlorophenyl)-6-(methyloxy)-7-{[(2-piperidin-2-yl-1,3-thiazol-4-yl)methyl]oxy}quinazolin-4-amine] has a pIC50 [1] of 6.00 to 7.30, a pIC50 [2] greater than 7.30 and a pIC50 [3] of 6.00 to 7.30.
Compound `COc1cc2c(Nc3ccc(Cl)c(Cl)c3)ncnc2cc1OCc1csc(C2CCCCN2C)n1` (stereo not drawn) [Example 250, N-(3,4-dichlorophenyl)-6-(methyloxy)-7-({[2-(1-methylpiperidin-2-yl)-1,3-thiazol-4-yl]methyl}oxy)quinazolin-4-amine] has a pIC50 [1] of 6.00 to 7.30, a pIC50 [2] greater than 7.30 and a pIC50 [3] of 6.00 to 7.30.
